A short description of data set [1]: Stability of hydrocortisone hemisuccinate in PVOH hydrogels and PEO matrices (HPLC). The data set is classed as physicochemical. The method, then:
The stability of hydrocortisone hemisuccinate (HCHS), a hydrolytically unstable compound that forms hydrocortisone and succinic acid via hydrolysis, in PVOH hydrogels and PEO matrices was investigated.
In a separate set of experiments (FIGS. 3A and 3B), the stability of HCHS in PVOH hydrogels and PEO matrices was examined at 23° C. and 40° C. over a period of three days.

Data set [2] in a line: Stability of apomorphine in aqueous solution and in PEO matrices. The data set is classed as physicochemical. To be noted: PEO films cast using 2:1 acetonitrile:methanol; low formate or non-radiation crosslinked PEO; FIG. 4.
The conditions of data set [3]: transdermal electrotransport, FIGS. 5A and 5B.
For data set [4] the following is noted: aqueous solutions of apomorphine; cited from earlier work.

On to hydrocortisone hemisuccinate [HCHS], for which the “stability of HCHS in PEO matrices vs PVOH hydrogels” value in data set [1] (40° C., over a period of three days, FIGS. 3A and 3B) is “Improved stability”. Also, the “stability of HCHS in PEO matrix compared with PVOH hydrogel (HPLC chromatogram)” value in data set [1] (PEO film made using acetonitrile as the solvent vs PVOH hydrogel, FIG. 2) is “more stable in the PEO matrix than in the PVOH hydrogel”.
In the case of `CN1CCc2cccc3c2[C@H]1Cc1ccc(O)c(O)c1-3` [apomorphine], the “time over which formulations containing PEO were stable” value in data set [2] is given as “up to 4 weeks”. Also, the “in vitro flux in PEO films compared with PVOH hydrogels” value in data set [3] is reported as “comparable”. The “time to rapid oxidation in aqueous solutions” value in data set [4] is “less than 30 minutes”.

The values above are taken from patent US20070149916A1, “Dry matrices as drug reservoirs in electrotransport applications” (ALZA CORPORATION, priority 2005, published 2007).
